How the values were obtained:
Assay type in all cases: cell-based, human
[1] = test system: K562 cells; test: RT-PCR of KLF2, LOC138255, GDF15 and INHBE mRNA during megakaryocytic development; details: 50 μg/ml, incubated 6, 12, 24, 48, 72, 96 and 120 hr, FIG. 3
Method: (§1) The OP9 stromal cell line was aliquoted into 6-well culture plate at a density of 1×10^5/well, and cultured for 24 hrs as a monolayer in a-MEM supplemented with 20% heat-inactivated FBS, 0.5% penicillin/streptomycin and 1.5 g/L sodium bicarbonate. When the OP9 stromal cell line was cultured as a monolayer, the K562 cells were aliquoted upper the OP9 cells at a density of 1×10^5/well, and cocultured with the OP9 cells. These K562 cells were treated with (R)-NALPLE (see Korean Patent No. 10-0688261) at a concentration of 50 μg/ml to induce megakaryocytic differentiation.
To analyze the expression patterns of the selected 4 genes, KLF2, LOC138255, GDF15, and INHBE during megakaryocytic development, RT-PCR was performed to measure the mRNA level in cells.
In order to specifically analyze their expression patterns during megakaryocytic development, the K562 cells were incubated for 6, 12, 24, 48, 72, 96, and 120 hr with the compound ((R)-NALPLE 50 μg/ml). Total cellular RNA was extracted from the K562 cells using an RNeasy mini kit following the manufacturer's instructions using M-MLV Reverse Transcriptase (Promega, Madison, Wis.), and RT-PCR was performed.
Amplification conditions were followed by 20 cycles (for GAPDH) or 25 cycles (for KLF2, LOC138255, GDF15, and INHBE) at 95° C. for 30 seconds, 60° C. for 60 seconds, and 72° C. for 90 seconds. The primers used were the following: • KLF2 forward primer (SEQ ID NO.1): 5′-[…]-3′ • reverse primer (SEQ ID NO.2);5′-CATGTGCCGTTTCATGTGC-3′ • LOC138255 forward primer )SEQ ID NO.3); 5′-[…]-3′ • reverse primer )SEQ ID NO. 4);5′-[…]-3′ • GDF15 forward primer 9SEQ ID NO. 5); 5′-[…]-3′ • reverse primer (SEQ ID NO. 6): 5′-[…]-3′ • INHBE forward primer (SEQ ID NO. 7); 5′-[…]-3′ • reversre primer (SEQ ID NO. 8);5′[…]-3′ • GARDH forward primer (SEQ ID NO. 9);5′-[…]-3′ • reverse primer (SEQ ID NO. 10);5′-[…]-3′
After PCR reaction, each reaction mixture was analyzed by 1% agarose gel electrophoresis, and the bands were visualized by ethidium bromide staining (FIG. 3).

[2] = test system: umbilical cord blood-derived CD34+ hematopoietic stem cell; test: Morphological change and polyploidization of CD34+ hematopoietic stem cells cocultured with OP9 stromal cells
Method: (§2) The OP9 stromal cell line was aliquoted into 6-well culture plate at a density of 1×10^5/well, and cultured for 24 hrs as a monolayer in a-MEM supplemented with 20% heat-inactivated FBS, 0.5% penicillin/streptomycin and 1.5 g/L sodium bicarbonate. When the OP9 stromal cell line was cultured as a monolayer, the media was replaced with StemSpan™ H3000 for CD34+ hematopoietic stem cell culture. Then, the CD34+ hematopoietic stem cells were aliquoted upper the op cells at a density of 3×10^5/well.
In order to confirm the distinct morphological change of the umbilical cord blood-derived CD34+ hematopoietic stem cell treated with the compound of Formula 1, the cells were treated with the compound of Formula 1 and the known hematopoietic stem cell differentiation inducers, CC100, CC200, IL-3, IL-6, TPO and SCF, so as to investigate morphological changes and polyploidization of the CD34+ hematopoietic stem cell.
The CD34+ hematopoietic stem cells cocultured with OP9 cells through Example 1 were treated with each of the materials. The cells were treated with each of the hematopoietic stem cell differentiation inducers at a following concentration; CC100 (rhFlt-3 ligand 100 ng/ml, SCF 100 ng/ml, IL-3 20 ng/ml, IL-6 20 ng/ml), CC200 (rhTPO 50 ng/ml, rhSCF 50 ng/ml, IL-3 10 ng/ml), Megacult-C (TPO 5 ng/ml, IL-3 1 ng/ml, IL-6 2 ng/ml), IL-3 of 10 ng/ml, IL-6 of 20 ng/ml, SCF of 50 ng/ml, and (R)-NALPCE of 45 μg/ml.
After 8 days, the cells were photographed by Mag. ×200 to examine the morphological changes (FIG. 1).
In addition, polyploidization of the cells was analyzed by FACS (flow cytometer). The cells were harvested and resuspended with 1×PBS containing 0.1% saponin. 10 mg/mL RNAse A and propidium iodide solution were added thereto. Thereafter, the cells were incubated at room temperature for 30 min. The cells were analyzed by FACS caliber flow cytometer and Cell quest software. Results are means±SD (n=3). Similar results were obtained in three independent experiments (FIG. 1).

[3] = test system: umbilical cord blood-derived CD34+ hematopoietic stem cells; test: CD41 / CD61 megakaryocyte-specific marker expression by FACS in CD34+ hematopoietic stem cells cocultured with OP9; details: FIG. 2
Method: as §2
In order to confirm whether the differentiation of the umbilical cord blood-derived CD34+ hematopoietic stem cells into megakaryocytes and platelets was induced by treatment of the compound of Formula 1, the cells were treated with the compound of Formula 1 and the known hematopoietic stem cell differentiation inducers, CC200 and Megacult-C, singly or in a mixture. Then, expression of megakaryocyte-specific marker, CD41 or CD61 was analyzed.
The CD34+ hematopoietic stem cells cocultured with OP9 cells through Example 1 were treated with each of the hematopoietic stem cell differentiation inducers at a following concentration; CC200 (rhTPO 50 ng/ml, rhSCF 50 ng/ml, IL-3 10 ng/ml), Megacult-C (TPO 5 ng/ml), and (R)-NALPCE 35 ug/ml in culture media.
After 8 days, the culture media were centrifuged (1,000 rpm, 10 min), and the cell pellets thus obtained were washed three times with PBS. The cells were incubated with 20 μl of Fluorescein isothiocyanate (FITC)-conjugated mouse anti-human monoclonal CD41 antibody (DAKOCycomation, Denmark) or 20 μl of Fluorescein isothiocyanate(FITC)-conjugated mouse anti-human monoclonal CD61 antibody (DAKOCycomation, Denmark) in 200 μl of 0.01% bovine serum albumin (BSA)-PBS at 37° C. for 30 min while spinning to realize homogeneous fluorescent staining. After centrifugation (1,000 rpm, 10 min), the cell pellets thus obtained were washed three times with 0.01% bovine serum albumin (BSA) in PBS. Fluorescence was analyzed on a fluorescence-activated cell sorter (FACS Aria) using a Cellquest program. Results are means±SD (n=3). […]

[4] = test system: K562 cells; test: Oligonucleotide array (genechip) of gene expression during megakaryocytic differentiation; details: K562 cells treated with 50 μg/ml vs undifferentiated cells
Method: as §1
mRNAs were extracted from normal K562 cells and compound-treated K562 cells by the method of Example 5. To understand the genetic events during megakaryocytic development, the K562 cells were incubated for 6, 12, 24, 48, 72, 96, and 120 hr with the compound, and mRNAs were extracted from each cell using an RNeasy mini kit (Qiagen, USA). A genechip analysis was performed using 1 μg of RNA and an oligonucleotide array from Macrogen.
From analyzed data, total 67 genes, of which expression levels were increased more than 5-fold in differentiated K562 cells, were assigned. The functional categories included transcription factor, receptor, miscellaneous function, select calcium binding protein, phosphatase, signaling molecule, select regulatory factor, protease, nucleic acid binding, cytoskeleton protein, kinase, cell adhesion molecule, transferase, synthase, hydrolase defense/immunity and molecular function unclassified. Among these genes, selected were 4 genes of which expression levels were increased more 10 fold in differentiated cells, such as KLF2 (Kiruppel-like factor2), LOC138255 (OTTHUMP00000021439), GDF15 (growth differentiation factor 15) and INHBE (inhibin, betaE).

[5] = test system: K562 cells; test: Polyploidization (FACS) and morphology of shRNA-transfected K562 cells cocultured on OP9 in (R)-NALPCE; details: 50 μg/mL for 4 days, cocultured on OP9, FIG. 4
Method: To confirm whether the selected genes regulate the differentiation into megakaryocyte and platelets, shRNAs capable of inhibiting expressions of the KLF2, LOC138255, GDF15, and INHBE genes were constructed, and K562 cells were transfected with shRNAs.
The transfected K562 cells were sorted by FACS Aria flow cytometer, and cocultured upper OP9 stromal cells in 50 μg/mL of (R)-NALPCE for 4 days. Then, the cells were analyzed with a fluorescence-activated cell sorter using Cell quest, and photographed by Mag. ×200. Results are means±SD (n=3). Similar results were obtained in three independent experiments (FIG. 4).

Compound	GDF15 gene expression pattern (RT-PCR) [1]	INHBE gene expression pattern (RT-PCR) [1]	KLF2 gene expression pattern (RT-PCR) [1]	LOC138255 gene expression pattern (RT-PCR) [1]	morphological change (morphological feature of megakaryocytes) ([2]; 45 μg/ml, after 8 days, cocultured with OP9 cells, photographed Mag. x200, FIG. 1)	polyploidization (FACS, propidium iodide) ([2]; 45 μg/ml, cocultured with OP9 cells, FIG. 1)	megakaryocytic differentiation together with CC200, compared to each single treatment ([2]; addition of compound to CC200 (rhTPO 50 ng/ml, rhSCF 50 ng/ml, IL-3 10 ng/ml))	megakaryocytic differentiation together with Megacult-C, compared to each single treatment ([2]; addition of compound to Megacult-C (TPO 5 ng/ml, IL-3 1 ng/ml, IL-6 2 ng/ml))	expression level of CD41 or CD61, CC200 together with the compound vs single treatment of CC200 ([3]; 35 ug/ml plus CC200, after 8 days)	expression level of CD41 or CD61, megacult-C together with the compound vs single treatment of megacult-C ([3]; 35 ug/ml plus Megacult-C (TPO 5 ng/ml), after 8 days)	expression level of megakaryocyte-specific marker CD41 or CD61, compared with cells treated with CC200 or megacult-C ([3]; single treatment 35 ug/ml, after 8 days)	GDF15 expression increase in differentiated cells (oligonucleotide array) [4]	INHBE expression increase in differentiated cells (oligonucleotide array) [4]	KLF2 expression increase in differentiated cells (oligonucleotide array) [4]	LOC138255 expression increase in differentiated cells (oligonucleotide array) [4]	polyploidization of non-transfected K562 cells [5]
N-steroyl-O-phosphocholine-D-serine methyl ester [compound of Formula 1]	markedly expressed at 12 to 96 hr	markedly expressed at 12 to 96 hr	markedly expressed at 12 to 96 hr	markedly expressed at 12 to 96 hr	–	–	–	–	–	–	–	–	–	–	–	–
CCCCCCCCCCCCCCCCCC(=O)N[C@H](COP(=O)([O-])OCC[N+](C)(C)C)C(=O)OC [compound of Formula 1, N-steroyl-O-phosphocholine-D-serine methyl ester]	–	–	–	–	increase in cytoplasmic mass and cell size	high nucleus number due to polyploidization through endomitosis	more induced megakaryocytic differentiation	more induced megakaryocytic differentiation	higher	higher	higher	> 10 fold	> 10 fold	> 10 fold	> 10 fold	high nucleus number due to polyploidization through the endomitosis
